Data published in PubChem BioAssay (NCI).
Several values for one entry are separate records, joined by “and”; a condition that tells them apart may be missing. Equal entries are not always repeated.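 Protocol summary: plate cells (96-well), add compound at 5 concentrations, incubate 48 h, interpolate endpoints linearly. GI50 = concentration required for 50% inhibition of growth. TGI marks complete inhibition of growth.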

Columns and labels:
Test in all cases: NCI tumour cell line growth inhibition, 48 h; in the data active = GI50 below about 0.43 µM; inactive = the rest
M14 melanoma = test system: M14 melanoma
SR leukemia = test system: SR leukemia
OVCAR-8 ovarian = test system: OVCAR-8 ovarian
SW-620 colon = test system: SW-620 colon
NCI-H23 lung = test system: NCI-H23 lung
NCI/ADR-RES ovarian = test system: NCI/ADR-RES ovarian
MDA-MB-435 = test system: MDA-MB-435
PC-3 prostate = test system: PC-3 prostate
NCI-H522 lung = test system: NCI-H522 lung
K-562 leukemia = test system: K-562 leukemia
A549 NSCLC = test system: A549 NSCLC
U251 CNS = test system: U251 CNS
HCT-116 colon = test system: HCT-116 colon
KM12 colon = test system: KM12 colon
A498 renal = test system: A498 renal
NCI-H460 lung = test system: NCI-H460 lung
ACHN renal = test system: ACHN renal
MALME-3M melanoma = test system: MALME-3M melanoma
UO-31 renal = test system: UO-31 renal
HS 578T breast = test system: HS 578T breast
SK-OV-3 ovarian = test system: SK-OV-3 ovarian
MDA-MB-231 breast = test system: MDA-MB-231 breast
HOP-92 NSCLC = test system: HOP-92 NSCLC
SNB-19 CNS = test system: SNB-19 CNS
HOP-62 NSCLC = test system: HOP-62 NSCLC
OVCAR-5 ovarian = test system: OVCAR-5 ovarian
T-47D breast = test system: T-47D breast
SK-MEL-2 melanoma = test system: SK-MEL-2 melanoma
SN12C renal = test system: SN12C renal
HT29 colon = test system: HT29 colon
EKVX NSCLC = test system: EKVX NSCLC
MCF7 breast = test system: MCF7 breast
HCC-2998 colon = test system: HCC-2998 colon
IGROV1 ovarian = test system: IGROV1 ovarian
MOLT-4 leukemia = test system: MOLT-4 leukemia
HL-60(TB) leukemia = test system: HL-60(TB) leukemia
COLO 205 colon = test system: COLO 205 colon
786-0 renal = test system: 786-0 renal
CAKI-1 renal = test system: CAKI-1 renal
TK-10 renal = test system: TK-10 renal
UACC-62 melanoma = test system: UACC-62 melanoma
SF-539 CNS = test system: SF-539 CNS
SK-MEL-28 melanoma = test system: SK-MEL-28 melanoma
BT-549 breast = test system: BT-549 breast
HCT-15 colon = test system: HCT-15 colon
SK-MEL-5 melanoma = test system: SK-MEL-5 melanoma
RPMI-8226 leukemia = test system: RPMI-8226 leukemia
RXF 393 renal = test system: RXF 393 renal
NCI-H226 lung = test system: NCI-H226 lung
UACC-257 melanoma = test system: UACC-257 melanoma
DU-145 prostate = test system: DU-145 prostate
SNB-75 CNS = test system: SNB-75 CNS
SF-295 CNS = test system: SF-295 CNS
OVCAR-4 ovarian = test system: OVCAR-4 ovarian
SF-268 CNS = test system: SF-268 CNS
OVCAR-3 ovarian = test system: OVCAR-3 ovarian
LOX IMVI melanoma = test system: LOX IMVI melanoma

O=c1cc(-c2cccc(C(F)(F)F)c2)[nH]c2cc3c(cc12)OCO3
24 µM and > 100 µM: TGI (COLO 205 colon)
2.14 µM and 0.829 µM: TGI (NCI/ADR-RES ovarian)
16.8 µM and 22.5 µM: TGI (HOP-62 NSCLC)
3.34 µM: TGI (SK-MEL-2 melanoma)
1.95 µM and 0.366 µM: TGI (MDA-MB-435)
4.08 µM and 11 µM: TGI (NCI-H460 lung)
30.1 µM: TGI (MDA-MB-231 breast)
7.91 µM and 27 µM: TGI (786-0 renal)
40.8 µM and 13 µM: TGI (HT29 colon)
49.9 µM and 7 µM: TGI (A498 renal)
4.41 µM: TGI (SK-MEL-5 melanoma)
50 µM and 53.9 µM: TGI (SK-MEL-28 melanoma)
active: GI50 (M14 melanoma) 0.41 µM | GI50 (SW-620 colon) 0.326 µM | GI50 (NCI-H23 lung) 0.276 µM | GI50 (NCI/ADR-RES ovarian) 0.251 µM | GI50 (MDA-MB-435) 0.175 µM | GI50 (U251 CNS) 0.145 µM | GI50 (NCI-H460 lung) 0.353 µM | GI50 (UO-31 renal) 0.315 µM | GI50 (SK-OV-3 ovarian) 0.326 µM | GI50 (MOLT-4 leukemia) 0.338 µM | GI50 (UACC-62 melanoma) 0.356 µM | GI50 (BT-549 breast) 0.359 µM | GI50 (HCT-15 colon) 0.4 µM
29.1 µM and 16.8 µM: TGI (SK-OV-3 ovarian)
0.705 µM: TGI (HL-60(TB) leukemia)
21.5 µM and 18.5 µM: TGI (OVCAR-8 ovarian)
> 100 µM: TGI (SR leukemia) | TGI (PC-3 prostate) | TGI (NCI-H522 lung) | TGI (K-562 leukemia) | TGI (MALME-3M melanoma) | TGI (T-47D breast) | TGI (CAKI-1 renal) | TGI (TK-10 renal) | TGI (RPMI-8226 leukemia)
50 µM and 7.58 µM: TGI (SNB-19 CNS)
50 µM and > 100 µM: TGI (M14 melanoma) | TGI (SW-620 colon) | TGI (ACHN renal) | TGI (OVCAR-5 ovarian) | TGI (SN12C renal) | TGI (MCF7 breast) | TGI (MOLT-4 leukemia) | TGI (BT-549 breast)
13 µM and > 100 µM: TGI (KM12 colon)
17.5 µM: TGI (HS 578T breast)
inactive: GI50 (OVCAR-8 ovarian) 0.482 µM | GI50 (A549 NSCLC) 0.521 µM | GI50 (HCT-116 colon) 1.98 µM and 0.482 µM | GI50 (KM12 colon) 0.486 µM | GI50 (A498 renal) 1.47 µM | GI50 (ACHN renal) 30.5 µM | GI50 (SNB-19 CNS) 0.427 µM | GI50 (HOP-62 NSCLC) 0.517 µM | GI50 (OVCAR-5 ovarian) > 100 µM | GI50 (T-47D breast) > 100 µM | GI50 (SN12C renal) 0.735 µM | GI50 (HT29 colon) 3.11 µM | GI50 (MCF7 breast) 0.95 µM | GI50 (HCC-2998 colon) 0.493 µM | GI50 (COLO 205 colon) 5.1 µM | GI50 (786-0 renal) 0.902 µM | GI50 (TK-10 renal) 22.5 µM | GI50 (SF-539 CNS) 0.483 µM | GI50 (SK-MEL-28 melanoma) 0.455 µM | GI50 (SK-MEL-5 melanoma) 1.27 µM
2.53 µM and 6.6 µM: TGI (SF-539 CNS)
19.1 µM and 29.4 µM: TGI (HCT-116 colon)
50 µM: TGI (A549 NSCLC) | TGI (HOP-92 NSCLC) | TGI (EKVX NSCLC) | TGI (IGROV1 ovarian)

N#Cc1c2ccc([N+](=O)[O-])cc2c(=O)n2c1sc1ccc(C(F)(F)F)cc12
> 100 µM: TGI (M14 melanoma) | TGI (OVCAR-8 ovarian) | TGI (SW-620 colon) | TGI (NCI-H23 lung) | TGI (NCI/ADR-RES ovarian) | TGI (RXF 393 renal) | TGI (MDA-MB-435) | TGI (NCI-H522 lung) | TGI (NCI-H226 lung) | TGI (K-562 leukemia) | TGI (UACC-257 melanoma) | TGI (A549 NSCLC) | TGI (U251 CNS) | TGI (HCT-116 colon) | TGI (KM12 colon) | TGI (A498 renal) | TGI (NCI-H460 lung) | TGI (ACHN renal) | TGI (MALME-3M melanoma) | TGI (DU-145 prostate) | TGI (UO-31 renal) | TGI (SK-OV-3 ovarian) | TGI (MDA-MB-231 breast) | TGI (SNB-75 CNS) | TGI (HOP-92 NSCLC) | TGI (SNB-19 CNS) | TGI (SF-295 CNS) | TGI (OVCAR-4 ovarian) | TGI (SF-268 CNS) | TGI (HOP-62 NSCLC) | TGI (OVCAR-5 ovarian) | TGI (T-47D breast) | TGI (SN12C renal) | TGI (HT29 colon) | TGI (EKVX NSCLC) | TGI (IGROV1 ovarian) | TGI (MOLT-4 leukemia) | TGI (COLO 205 colon) | TGI (786-0 renal) | TGI (CAKI-1 renal) | TGI (TK-10 renal) | TGI (OVCAR-3 ovarian) | TGI (LOX IMVI melanoma) | TGI (SF-539 CNS) | TGI (SK-MEL-28 melanoma) | TGI (BT-549 breast) | TGI (HCT-15 colon) | TGI (SK-MEL-5 melanoma) | TGI (RPMI-8226 leukemia)
